Results published in patent US6472418B1, “Non-peptide NK1 receptors antagonists” (Warner-Lambert Company, priority 1998, dated 2002).

These molecules were tested against T1, Human NK1 Receptor (Homo sapiens, UniProt P25103) (assay: In Vitro Human NK1 Receptor Binding Assay ([125I]Bolton-Hunter substance P displacement, IM9 cells)). Conditions: Human lymphoma IM9 cells, [125I]Bolton-Hunter substance P (0.05-0.1 nM), 50 min at 21° C.; Table 1; read-out: NK1 binding IC50.
T1 construct: endogenous in cells; host or cells: Human lymphoma IM9 cells (whole cells)
T1 sequence (P25103 whole entry): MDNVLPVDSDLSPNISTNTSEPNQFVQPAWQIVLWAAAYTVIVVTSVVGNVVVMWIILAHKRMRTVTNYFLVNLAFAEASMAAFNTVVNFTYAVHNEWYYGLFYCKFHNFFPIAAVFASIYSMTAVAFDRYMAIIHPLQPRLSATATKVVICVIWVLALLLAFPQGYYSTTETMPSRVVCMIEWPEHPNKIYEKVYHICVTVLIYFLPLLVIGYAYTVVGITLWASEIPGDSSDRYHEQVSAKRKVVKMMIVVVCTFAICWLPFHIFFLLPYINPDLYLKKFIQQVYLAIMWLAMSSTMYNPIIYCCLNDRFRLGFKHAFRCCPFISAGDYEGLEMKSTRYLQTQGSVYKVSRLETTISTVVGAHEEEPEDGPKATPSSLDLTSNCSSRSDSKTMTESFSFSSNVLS
In short: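 Test compounds competed with 0.05-0.1 nM [125I]Bolton-Hunter substance P for binding to intact IM9 cells over 50 min at 21° C, pH 7.4 buffer with MnCl2 and peptidase inhibitors. […] [Sar9, Met(O2)11] substance P gave non-specific binding. Bound counts were measured after filtration and fitted iteratively.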
For C[C@H](NC(=O)[C@@H](Cc1c[nH]c2ccccc12)NCc1cccc(C#N)c1)c1ccccc1 (relative stereo) [Example 14, 2-(3-Cyano-benzylamino)-3-(1H-indol-3-yl)-N-(1-phenyl-ethyl)-propionamide, [R-(R*,S*)]], the IC50 was 4.7 nM.

Same assay, conditions: Human lymphoma IM9 cells, [125I]Bolton-Hunter substance P; Table 3, array-synthesis products; read-out: IC50 (nM) hNK1
Molecule N#CC(NC(=O)C(Cc1c[nH]c2ccccc12)NCc1cc2ccccc2o1)c1ccccc1 (stereo not shown) [Example 287, 2-[(Benzofuran-2-ylmethyl)-amino]-N-(cyano-phenyl-methyl)-3-(1H-indol-3-yl)-propionamide] has an IC50 of 35 nM. With COc1ccc(CCNC(=O)C(Cc2c[nH]c3ccccc23)NCc2cc3ccccc3o2)cc1 (stereo not shown) [Example 271, 2-[(Benzofuran-2-ylmethyl)-amino]-3-(1H-indol-3-yl)-N-[2-(4-methoxy-phenyl)-ethyl]-propionamide] the IC50 was 196 nM. Molecule O=C(NCc1cccc(C(F)(F)F)c1)C(Cc1c[nH]c2ccccc12)NCc1cc2ccccc2o1 (stereo not shown) [Example 228, 2-[(Benzofuran-2-ylmethyl)-amino]-3-(1H-indol-3-yl)-N-(3-trifluoromethyl-benzyl)-propionamide] has an IC50 of 82 nM. O=C(NCCN1CCCC1)C(Cc1c[nH]c2ccccc12)NCc1cc2ccccc2o1 (stereo not shown) [Example 222, 2-[(Benzofuran-2-ylmethyl)-amino]-3-(1H-indol-3-yl)-N-(2-pyrrolidin-1-yl-ethyl)-propionamide] was tested, and the IC50 was over 10000 nM. O=C(NCCc1ccccc1F)C(Cc1c[nH]c2ccccc12)NCc1cc2ccccc2o1 (stereo not shown) [Example 274, 2-[(Benzofuran-2-ylmethyl)-amino]-N-[2-(2-fluoro-phenyl)-ethyl]-3-(1H-indol-3-yl)-propionamide] was tested, and the IC50 was 264 nM. Work on O=C(NCCc1c[nH]cn1)C(Cc1c[nH]c2ccccc12)NCc1cc2ccccc2o1 (stereo not shown) [Example 206, 2-[(Benzofuran-2-ylmethyl)-amino]-N-[2-(1H-imidazol-4-yl)-ethyl]-3-(1H-indol-3-yl)-propionamide] yielded an IC50 of 6680 nM. CC(NC(=O)C(Cc1c[nH]c2ccccc12)NCc1cc2ccccc2o1)c1ccccc1 (stereo not shown) [Example 234, 2-[(Benzofuran-2-ylmethyl)-amino]-3-(1H-indol-3-yl)-N-(1-phenyl-ethyl)-propionamide] gave an IC50 of 75 nM. With O=C(NCCn1cccc1)C(Cc1c[nH]c2ccccc12)NCc1cc2ccccc2o1 (stereo not shown) [Example 212, 2-[(Benzofuran-2-ylmethyl)-amino]-3-(1H-indol-3-yl)-N-(2-pyrrol-1-yl-ethyl)-propionamide] the IC50 was 658 nM.

Same assay, conditions: Table 4; [125I]Bolton-Hunter substance P displacement, human IM9 cells; read-out: IC50 (nM) hNK1
CC(NC(=O)C(C)(Cc1c[nH]c2ccccc12)NCc1ccc(OCCCC(C)(C)C(=O)O)cc1)c1ccccc1 (stereo not shown) [compound 327, 5-(4-{[2-(1H-Indol-3-yl)-1-methyl-1-(1-phenyl-ethylcarbamoyl)-ethylamino]-methyl}-phenoxy)-2,2-dimethyl-pentanoic acid] showed an IC50 of over 10000 nM. Work on “4-{[2-(1H-Indol-3-yl)-1-methyl-1-(1-phenyl-ethylcarbamoyl)-ethylamino]-methyl}-benzoic acid methyl ester [compound 337]” yielded an IC50 of 1920 nM. In the case of “3-(1H-Indol-3-yl)-2-methyl-N-(1-phenyl-ethyl)-2-[4-(4-phenyl-piperidin-1-yl)-benzylamino]-propionamide [compound 334]”, the IC50 is reported as over 10000 nM.

Same assay, conditions: Table 5; [125I]Bolton-Hunter substance P displacement, human IM9 cells; read-out: IC50 (nM) hNK1
With CC(NC(=O)C(Cc1c[nH]c2ccccc12)NCCCc1cccc2ccccc12)c1ccccc1 (stereo not shown) [compound 380] the IC50 was 500 nM. For CC(NC(=O)C(Cc1c[nH]c2ccccc12)NCc1cccnc1)c1ccccc1 (stereo not shown) [compound 393], the IC50 was 802 nM. CC(NC(=O)C(Cc1c[nH]c2ccccc12)NCc1ccc2c(c1)OCO2)c1ccccc1 (stereo not shown) [compound 386] was tested, and the IC50 was 240 nM. CC(NC(=O)C(Cc1c[nH]c2ccccc12)NCc1ccc(N2CCOCC2)cc1Cl)c1ccccc1 (stereo not shown) [compound 368] gave an IC50 of 2240 nM.

Same assay, conditions: human NK1 receptor, IM9 cells, [125I]Bolton-Hunter substance P; read-out: IC50 (nM) hNK1
CC(Cc1c[nH]c2ccccc12)(NCc1cc2ccccc2o1)C(=O)NCc1cccc(Br)c1 (stereo not shown) [compound 72, 2-[(Benzofuran-2-ylmethyl)-amino]-N-(3-bromo-benzyl)-3-(1H-indol-3-yl)-2-methyl-propionamide] showed an IC50 of 18 nM. Work on CC(Cc1c[nH]c2ccccc12)(NCc1cc2ccccc2o1)C(=O)NCc1ccc(F)cc1Cl (stereo not shown) [compound 168] yielded an IC50 of 230 nM. For CC(Cc1c[nH]c2ccccc12)(NCc1cc2ccccc2o1)C(=O)NC1Cc2ccccc2C1 (stereo not shown) [compound 113, 2-[(Benzofuran-2-ylmethyl)-amino]-N-indan-2-yl-3-(1H-indol-3-yl)-2-methyl-propionamide], the IC50 was 463 nM. With CC(Cc1c[nH]c2ccccc12)(NCc1cc2ccccc2o1)C(=O)NCc1ccc2c(c1)OCO2 (stereo not shown) [compound 174, N-Benzo[1,3]dioxol-5-ylmethyl-2-[(benzofuran-2-ylmethyl)-amino]-3-(1H-indol-3-yl)-2-methyl-propionamide] the IC50 was 94 nM. CC(Cc1c[nH]c2ccccc12)(NCc1cc2ccccc2o1)C(=O)NCCN1CCNC1=O (stereo not shown) [compound 86, 2-[(Benzofuran-2-ylmethyl)-amino]-3-(1H-indol-3-yl)-2-methyl-N-[2-(2-oxo-imidazolidin-1-yl)-ethyl]-propionamide] was tested, and the IC50 was over 10000 nM. Work on CC(Cc1c[nH]c2ccccc12)(NCc1cc2ccccc2o1)C(=O)NCc1cc(Cl)sc1Cl (stereo not shown) [compound 109, 2-[(Benzofuran-2-ylmethyl)-amino]-N-(2,5-dichloro-thiophen-3-ymethyl)-3-(1H-indol-3-yl)-2-methyl-propionamide] yielded an IC50 of 279 nM. For CCC(NC(=O)C(C)(Cc1c[nH]c2ccccc12)NCc1cc2ccccc2o1)c1ccccc1 (stereo not shown) [compound 162, 2-[(Benzofuran-2-ylmethyl)-amino]-3-(1H-indol-3-yl)-2-methyl-N-(1-phenyl-propyl)-propionamide], the IC50 was 42 nM. Work on COC(=O)c1ccc(CNC(=O)C(C)(Cc2c[nH]c3ccccc23)NCc2cc3ccccc3o2)c(OC)c1 (stereo not shown) [compound 81, 4-{[2-[(Benzofuran-2-ylmethyl)-amino]-3-(1H-indol-3-yl)-2-methyl-propionylamino]-methyl}-3-methoxy-benzoic acid methyl ester] yielded an IC50 of over 10000 nM. In the case of CC(NC(=O)C(C)(Cc1c[nH]c2ccccc12)NCc1cc2ccccc2o1)c1ccc([N+](=O)[O-])cc1 (stereo not shown) [compound 124, 2-[(Benzofuran-2-ylmethyl)-amino]-3-(1H-indol-3-yl)-2-methyl-N-[1-(4-nitro-phenyl)-ethyl]-propionamide], the IC50 is reported as 92 nM. In the case of CC(Cc1c[nH]c2ccccc12)(NCc1cc2ccccc2o1)C(=O)NCc1c(N)cccc1F (stereo not shown) [compound 48, N-(2-Amino-6-fluoro-benzyl)-2-[(benzofuran-2-ylmethyl)-amino]-3-(1H-indol-3-yl)-2-methyl-propionamide], the IC50 is reported as 6420 nM. With CC(CNC(=O)C(C)(Cc1c[nH]c2ccccc12)NCc1cc2ccccc2o1)c1ccccc1 (stereo not shown) [compound 150, 2-[(Benzofuran-2-ylmethyl)-amino]-3-(1H-indol-3-yl)-2-methyl-N-(2-phenyl-propyl)-propionamide] the IC50 was 262 nM. Molecule CC(Cc1c[nH]c2ccccc12)(NCc1cc2ccccc2o1)C(=O)NCC(=O)N1CCOCC1 (stereo not shown) [compound 173, 2-[(Benzofuran-2-ylmethyl)-amino]-3-(1H-indol-3-yl)-2-methyl-N-(2-morpholin-4-yl-2-oxo-ethyl)-propionamide] has an IC50 of over 10000 nM. CC(NC(=O)C(C)(Cc1c[nH]c2ccccc12)NCc1cc2ccccc2o1)c1ccc(N)cc1 (stereo not shown) [compound 38, N-[1-(4-Amino-phenyl)-ethyl]-2-[(benzofuran-2-ylmethyl)-amino]-3-(1H-indol-3-yl)-2-methyl-propionamide] was tested, and the IC50 was 141 nM. CC(Cc1c[nH]c2ccccc12)(NCc1cc2ccccc2o1)C(=O)NCC1CCCCC1 (stereo not shown) [compound 27, 2-[(Benzofuran-2-ylmethyl)-amino]-N-cyclohexylmethyl-3-(1H-indol-3-yl)-2-methyl-propionamide] was tested, and the IC50 was 311 nM. CC(Cc1c[nH]c2ccccc12)(NCc1cc2ccccc2o1)C(=O)NCc1cccc(OC(F)(F)F)c1 (stereo not shown) [compound 59, 2-[(Benzofuran-2-ylmethyl)-amino]-3-(1H-indol-3-yl)-2-methyl-N-(3-trifluoromethoxy-benzyl)-propionamide] was tested, and the IC50 was over 10000 nM. For CC(NC(=O)C(C)(Cc1c[nH]c2ccccc12)NCc1cc2ccccc2o1)c1ccccn1 (stereo not shown) [compound 69, 2-[(Benzofuran-2-ylmethyl)-amino]-3-(1H-indol-3-yl)-2-methyl-N-(1-pyridin-2-yl-ethyl)-propionamide], the IC50 was 12 nM. Work on CC(Cc1c[nH]c2ccccc12)(NCc1cc2ccccc2o1)C(=O)NCCc1c[nH]cn1 (stereo not shown) [compound 97, 2-[(Benzofuran-2-ylmethyl)-amino]-N-[2-(1H-imidazol-4-yl)-ethyl]-3-(1H-indol-3-yl)-2-methyl-propionamide] yielded an IC50 of over 10000 nM. With CC(Cc1c[nH]c2ccccc12)(NCc1cc2ccccc2o1)C(=O)NCc1c(F)cccc1F (stereo not shown) [compound 190, 2-[(Benzofuran-2-ylmethyl)-amino]-N-(2,6-difluoro-benzyl)-3-(1H-indol-3-yl)-2-methyl-propionamide] the IC50 was 3540 nM. For CC(Cc1c[nH]c2ccccc12)(NCc1cc2ccccc2o1)C(=O)NCCCN1CCCC1=O (stereo not shown) [compound 91], the IC50 was over 10000 nM. CC(Cc1c[nH]c2ccccc12)(NCc1cc2ccccc2o1)C(=O)NCc1ccc(C(=O)O)cc1 (stereo not shown) [compound 171, 4-{[2-[(Benzofuran-2-ylmethyl)-amino]-3-(1H-indol-3-yl)-2-methyl-propionylamino]-methyl}-benzoic acid] showed an IC50 of over 10000 nM. With CCC(NC(=O)C(C)(Cc1c[nH]c2ccccc12)NCc1cc2ccccc2o1)c1ccccc1 (stereo not shown) [compound 63, 2-[(Benzofuran-2-ylmethyl)-amino]-3-(1H-indol-3-yl)-2-methyl-N-(1-phenyl-propyl)-propionamide] the IC50 was 58 nM.
